Data taken from US20220274938A1, “5-[(1S)-1-(4-BROMOPHENOXY)ETHYL]-2H-TETRAZOLE DERIVATIVES AND RELATED COMPOUNDS AS CLC-1 ION CHANNEL INHIBITORS FOR TREATING NEUROMUSCULAR DISORDERS” (NMD PHARMA A/S, priority 2019, published 2022).

Tests used:
[1] = test system: isolated rat soleus muscles; experiment: Measurement of force in an in vitro model: isolated rat soleus nerve-muscle preparation with tubocurarine; assay type: cell-based; conditions: Rattus norvegicus, 40 min; 50 μM test compound, after 40 mins of compound exposure; 115 nM tubocurarine for 90 mins; read-out: Point increase (%) of initial force that was restored
Protocol: FIG. 2. […] Force traces from a representative muscle stimulated to contract in 1) control condition before addition of neuromuscular blocking agent, 2) the force response to stimulation after 90 minutes incubation with Tubocurarine. […] The traces presented in panel A (1, 2, 3), correspond to the dotted lines in panel B, respectively.
Recovery of force is quantified as the percentage of the force prior to tubocurarine that is recovered by the compound.
The current disclosure relates to compounds that inhibit CIC-1 ion channels and increase muscle excitability and thereby improve muscle function in clinical conditions where muscle activation is failing. Such conditions result in loss of contractile function of skeletal muscle, weakness and excessive fatigue. In this series of experiments the compounds were tested for their ability to restore contractile function of isolated rat muscle when the neuromuscular transmission had been compromised akin to neuromuscular disorders.
Experimentally, soleus muscles from 4-5 week old rats were isolated with the motor nerve remaining attached. The nerve-muscle preparations were mounted in experimental setups that enabled electrical stimulation of the motor nerve. Stimulation of the motor nerve led to activation of the muscle fibres and ensuing force production that was recorded. The nerve-muscle preparations were also in these experiments incubated in the standard Krebs Ringer (see example 5) and the solution was heated to 30° C. and continuously equilibrated with a mixture of 95% O2 and 5% CO2, pH˜7.4.
After mounting the nerve-muscle preparation in the experimental setup, the contractile function of the muscle was initially assessed under the control conditions (FIG. 2A). […] The experimental condition mimics the failing neuromuscular transmission in a range of neuromuscular disorders. After addition of tubocurarine the contractile force declined over the next 90 mins to 10-50% of the control force. 50 μM of the test compound was then added and the contractile force recovered despite the continued presence of tubocurarine. To quantify the ability of the compound to restore force the percentage of the initial force that was restored was determined after 40 mins of compound exposure (FIG. 2B) and the point increase is reported in Table 3.

female Lewis rats = experiment: In situ muscle contractile characteristics (isometric hindlimb force) under Cisatracurium infusion; assay type: in vivo, rat; conditions: 21.6 mg/kg i.v.; 80 Hz stimulation; neuromuscular transmission partially inhibited by Cisatracurium
Protocol: Isometric hindlimb force was measured in 12-week old female Lewis rats in the presence and absence of compound.
Rats were placed under anesthesia with isoflurane (2-4%), intubated and subsequently connected to a micro ventilator (Microvent 1, Hallowell EMC, US). Two stimulation electrodes were inserted through the skin to stimulate the sciatic nerve. A small incision was made proximal to the ankle, to expose the Achilles tendon, which was tied by cotton string, and connected to a force transducer (Fort250, World Precision Instruments) with adjustable position (Vernier control). The Achilles tendon was then cut distal to the attached cotton string. […]
Muscle contractile properties were assessed by applying an electrical current (under supramaximal voltage conditions) to the nerve and recording the force generated by the muscle. The muscle was stretched until maximal force was obtained, when assessed by 2 Hz stimulation. Isometric force was measured every 30 seconds at 12 Hz (Twitch), 10 pulses, and at every 5 minutes at 80 Hz (Tetanic) for 1 second (80 pulses). […] The effect of test article was assessed on its ability to increase force generated from the stimulation pattern applied. The effect was assessed in the ability to increase force per se (tetanic, 80 Hz, stimulation), and the ratio between individual twitch peaks (12 Hz stimulation). […]

Row | Structure (SMILES) | activation at 50 µM [1] | increase in tetanic force (female Lewis rats)
1 | C[C@H](Oc1ccc(Cl)cc1)C(=O)NOC1CCC1 [Compound C-80, (2S)-2-(4-chlorophenoxy)-N-cyclobutoxypropanamide] | 47% | –
2 | C[C@H](Oc1ccc(Br)cc1F)c1nn[nH]n1 [Compound E-8, 5-[(1S)-1-(4-bromo-2-fluorophenoxy)ethyl]-2H-1,2,3,4-tetrazole] | 34% | 11%
